Laboratory results reported in patent US9113629B2, “4-amino-6-(4-substituted-phenyl)-picolinates and 6-amino-2-(4-substituted-phenyl)-pyrimidine-4-carboxylates and their use as herbicides” (DOW AGROSCIENCES LLC, priority 2013, dated 2015).
Read-outs that look alike come from different tables or passages of the source.

Assays:
[1] = tested on: Key Grass and Sedge Weeds as well as Grass Crops; test: Post-emergent Test II herbicidal activity (Table 6); type: in vivo; conditions: post-emergence, 336 h; for pest or weed control at 70 g/ha: 70 g ai/ha; for pest or weed control at 140 g/ha: 140 g ai/ha
In short: (§1)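 Greenhouse post-emergent assay: seedlings (first/second true leaf) in Metro-Mix 360 were sprayed at 187 L/ha at a top rate plus twofold dilutions down to 1/16×; solvent-blank controls were included. Percent visual injury was read at 14 d.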

[2] = tested on: Key Broadleaf Weed and Crop Species; test: Post-emergent Test II herbicidal activity (Table 5); type: in vivo; conditions: post-emergence, 336 h, 14 days after application; for pest or weed control at 70 g/ha: application rate 70 g ai/ha; for pest or weed control at 140 g/ha: application rate 140 g ai/ha
In short: as §1

[3] = CYPES: yellow nutsedge (Cyperus esculentus), read-out: Visual Growth Reduction (%) 14 Days After Application, CYPES
[4] = DIGSA: crabgrass (Digitaria sanguinalis), read-out: Visual Growth Reduction (%) 14 Days After Application, DIGSA
[5] = ECHCG: barnyardgrass (Echinochloa crus-galli), read-out: Visual Growth Reduction (%) 14 Days After Application, ECHCG
[6] = ORYSA: rice (Oryza sativa), crop, read-out: Visual Growth Reduction (%) 14 Days After Application, ORYSA
[7] = SETFA: giant foxtail (Setaria faberi), read-out: Visual Growth Reduction (%) 14 Days After Application, SETFA
[8] = SORVU: grain sorghum (Sorghum vulgare), read-out: Visual Growth Reduction (%) 14 Days After Application, SORVU
[9] = TRZSS (wheat, Triticum aestivum), crop, read-out: Visual Growth Reduction (%) 14 Days After Application, TRZSS
[10] = ZEAMX: maize, corn (Zea mays), crop, read-out: Visual Growth Reduction (%) 14 Days After Application, ZEAMX
[11] = ABUTH: velvetleaf (Abutilon theophrasti), read-out: Visual Growth Reduction (%) 14 Days After Application, ABUTH
[12] = AMARE: redroot pigweed (Amaranthus retroflexus), read-out: Visual Growth Reduction (%) 14 Days After Application, AMARE
[13] = BRSNN: oilseed-rape, canola (Brassica napus), read-out: Visual Growth Reduction (%) 14 Days After Application, BRSNN
[14] = CHEAL: lambsquarters (Chenopodium album), read-out: Visual Growth Reduction (%) 14 Days After Application, CHEAL
[15] = EPHHL: wild poinsettia (Euphorbia heterophylla), read-out: Visual Growth Reduction (%) 14 Days After Application, EPHHL
[16] = HELAN: sunflower (Helianthus annuus), read-out: Visual Growth Reduction (%) 14 Days After Application, HELAN
[17] = VIOTR: wild pansy (Viola tricolor), read-out: Visual Growth Reduction (%) 14 Days After Application, VIOTR

SMILES	pest or weed control at 70 g/ha [1, 3]	pest or weed control at 140 g/ha [1, 3]	pest or weed control at 70 g/ha [1, 4]	pest or weed control at 140 g/ha [1, 4]	pest or weed control at 70 g/ha [1, 5]	pest or weed control at 140 g/ha [1, 5]	pest or weed control at 70 g/ha [1, 6]	pest or weed control at 140 g/ha [1, 6]	pest or weed control at 70 g/ha [1, 7]	pest or weed control at 140 g/ha [1, 7]	pest or weed control at 70 g/ha [1, 8]	pest or weed control at 140 g/ha [1, 8]	pest or weed control at 70 g/ha [1, 9]	pest or weed control at 140 g/ha [1, 9]	pest or weed control at 70 g/ha [1, 10]	pest or weed control at 140 g/ha [1, 10]	pest or weed control at 70 g/ha [2, 11]	pest or weed control at 140 g/ha [2, 11]	pest or weed control at 70 g/ha [2, 12]	pest or weed control at 140 g/ha [2, 12]	other results
C#Cc1ccc(-c2nc(C(=O)OC)c(Cl)c(N)c2F)cc1 [Compound 7, methyl 4-amino-3-chloro-6-(4-ethynylphenyl)-5-fluoropicolinate]	75 to 84%	85 to 94%	75 to 84%	85 to 94%	75 to 84%	95 to 100%	0 to 29%	0 to 29%	60 to 74%	95 to 100%	85 to 94%	85 to 94%	30 to 44%	45 to 59%	95 to 100%	95 to 100%	95 to 100%	95 to 100%	95 to 100%	95 to 100%	pest or weed control at 70 g/ha [2, 13]: 85 to 94%; pest or weed control at 140 g/ha [2, 13]: 85 to 94%; pest or weed control at 70 g/ha [2, 14]: 95 to 100%; pest or weed control at 140 g/ha [2, 14]: 95 to 100%; pest or weed control at 70 g/ha [2, 15]: 85 to 94%; pest or weed control at 140 g/ha [2, 15]: 95 to 100%; pest or weed control at 70 g/ha [2, 16]: 85 to 94%; pest or weed control at 140 g/ha [2, 16]: 95 to 100%; pest or weed control at 70 g/ha [2, 17]: 0 to 29%; pest or weed control at 140 g/ha [2, 17]: 0 to 29%; melting point: 127 to 130 °C
COC(=O)c1nc(-c2ccc(Br)c(F)c2)c(F)c(N)c1Cl [Compound 49]	95 to 100%	85 to 94%	60 to 74%	75 to 84%	85 to 94%	95 to 100%	0 to 29%	0 to 29%	60 to 74%	95 to 100%	95 to 100%	95 to 100%	45 to 59%	60 to 74%	95 to 100%	95 to 100%	95 to 100%	95 to 100%	95 to 100%	95 to 100%	pest or weed control at 70 g/ha [2, 13]: 95 to 100%; pest or weed control at 140 g/ha [2, 13]: 95 to 100%; pest or weed control at 70 g/ha [2, 14]: 95 to 100%; pest or weed control at 140 g/ha [2, 14]: 95 to 100%; pest or weed control at 70 g/ha [2, 16]: 95 to 100%; pest or weed control at 140 g/ha [2, 16]: 95 to 100%; pest or weed control at 70 g/ha [2, 17]: 95 to 100%; pest or weed control at 140 g/ha [2, 17]: 95 to 100%
Nc1c(F)c(-c2ccccc2)nc(C(=O)O)c1Cl [Compound 180]	30 to 44%	45 to 59%	0 to 29%	0 to 29%	0 to 29%	0 to 29%	0 to 29%	0 to 29%	0 to 29%	0 to 29%	0 to 29%	30 to 44%	0 to 29%	0 to 29%	0 to 29%	0 to 29%	85 to 94%	95 to 100%	45 to 59%	75 to 84%	pest or weed control at 70 g/ha [2, 13]: 85 to 94%; pest or weed control at 140 g/ha [2, 13]: 95 to 100%; pest or weed control at 70 g/ha [2, 14]: 95 to 100%; pest or weed control at 140 g/ha [2, 14]: 95 to 100%; pest or weed control at 70 g/ha [2, 15]: 60 to 74%; pest or weed control at 140 g/ha [2, 15]: 75 to 84%; pest or weed control at 70 g/ha [2, 16]: 85 to 94%; pest or weed control at 140 g/ha [2, 16]: 85 to 94%; pest or weed control at 70 g/ha [2, 17]: 0 to 29%; pest or weed control at 140 g/ha [2, 17]: 0 to 29%
